According to US8822690B2, “High transmissional yellow dye for LCD and synthetic method thereof” (LG Display Co., Ltd., priority 2012, dated 2014):
Where two headings read alike, the source gives them in different places.

How the values were obtained:
Type in all cases: physicochemical
[1] = qualitative solubility assessment of the synthesized quinophthalone series dye; conditions: organic solvent or mixture
Description: In below Table 1, there were qualitative solubility assessment results of the synthesized quinophthalone series dye. […] This means that new design to improve solubility is successful. It was shown that QP3 improving intermolecular steric hindrance by bulk-sized alkyl residue and QP4 increasing affinity to the process solvent, PGMEA, by introducing carboxylate functional group increased its solubility successfully than QP1.

[2] = spectroscopic change by temperature and number of PB (Δ Eab)
Method: Color simulation was performed according to the condition described in FIG. 15.

[3] = thermal resistance by Thermo Gravimetric Analyzer (TGA); conditions: high temperature zone over 300° C.
Method: Through Thermo Gravimetric Analyzer (TGA), Thermogravimetric Analyzer 2050 (TA instruments), thermal resistance of the synthesized dye was measured (FIG. 3). For the thermal resistance test, change of mass reduction rate (w %) was measured by passing through isothermal section at 220° C. for 30 min, raising the temperature to 30° C.˜400° C. in 10° C./min. In order to apply it as a dye material for LCD color filter, the mass reduction in isothermal zone must be less than 5%. […] In case of QP3 and QP4, it was analyzed that functional groups introduced to improve the solubility gave somewhat reciprocal effects to the thermal resistance of dye. […] It seems that the weight loss is caused by effects of solvents or impurities rather than thermal resistance of dye itself.

[4] = UV-vis absorption spectroscopic analysis of dye; conditions: slope of absorption reduction just prior to 500 nm, absorption after 500 nm
Description: As QP3 and QP4 increased the molar extinction coefficient further in addition to somewhat bathochromic-shift of λmax, they show very strong and sharp absorption peaks prior to 500 nm. This is very ideal absorption peak for being used as a yellow compensation dye to correct the major green dye.

[5] = solubility to PGMEA in primary color filter application property assessment; conditions: for 1% solubility of dye to PGMEA: 1% in PGMEA
[6] = process solvent PGMEA, read-out: solubility in PGMEA
[7] = solvent CH2Cl2, read-out: solubility in CH2Cl2
[8] = 180° C., first value of PB sequence
[9] = 180° C., second value of PB sequence
[10] = 180° C., third value of PB sequence
[11] = 200° C., first value of PB sequence
[12] = 200° C., second value of PB sequence
[13] = 200° C., third value of PB sequence
[14] = 230° C., first value of PB sequence
[15] = 230° C., second value of PB sequence
[16] = 230° C., third value of PB sequence

solubility [1, 6] [mg/mL]	solubility [1, 7] [mg/mL]	spectroscopic change by # of PB (Δ Eab) [2, 8]	spectroscopic change by # of PB (Δ Eab) [2, 9]	spectroscopic change by # of PB (Δ Eab) [2, 10]	spectroscopic change by # of PB (Δ Eab) [2, 11]	spectroscopic change by # of PB (Δ Eab) [2, 12]	spectroscopic change by # of PB (Δ Eab) [2, 13]	spectroscopic change by # of PB (Δ Eab) [2, 14]	spectroscopic change by # of PB (Δ Eab) [2, 15]	spectroscopic change by # of PB (Δ Eab) [2, 16]	thermal resistance in high temperature zone [3]	color property (UV-vis absorption peak) [4]	1% solubility of dye to PGMEA [5]	solubility to PGMEA [5]	SMILES
> 5	> 5														O=C1c2ccccc2C(=O)C1c1ccc2cccc(N3C(=O)c4ccccc4C3=O)c2n1 [QP1]
> 50	> 50	0.36	1.84	1.98	0.56	2.74	2.77	2.94	9.3	13.4	the best thermal resistance property	the most excellent color property	satisfactory level	5-10%	CC(C)(C)c1ccc2c(c1)C(=O)/C(=C1\C=Cc3cccc(N4C(=O)c5ccc(C(C)(C)C)cc5C4=O)c3N1)C2=O [QP3]
> 0.5	> 0.5														O=C1c2cccc3cccc(c23)C(=O)N1c1cccc2c1NC(=c1c(=O)c3cccc4cccc(c1=O)c43)C=C2 [QP2]
> 50	> 50	1.11	1.42	1.59	1.62	2.04	2.37	3.51	6.3	9.36			satisfactory level	5-7%	CCOC(=O)c1ccc2c(c1)C(=O)/C(=C1\C=Cc3cccc(N4C(=O)c5ccc(C(=O)OCC)cc5C4=O)c3N1)C2=O [QP4]
